Laboratory results: patent US20010034454A1, “Description anti-mitotic agents which inhibit tubulin polymerization” (BYLOR UNIVERSITY AND ARIZONA DESEASE CONTROL RESEARCH …, priority 1998, published 2001)
≈ marks a conversion by molar mass, not a printed value. Like-named read-outs stand apart in the source and are kept apart here.

Columns and labels:
[1] = tested on: SW1736; assay: Human cancer cell line studies, SW1736; assay type: cell-based; details: Thyroid ca SW1736
Description: (§1) The assay used is described in Monks et al. Briefly, the cell suspensions, diluted according to tho particular cell type and the expected target cell density (5,000-40,000 cells per well based on cell growth characteristics), were added by pipet (100 μl) to 96-well microtiter plates. Inoculates were allowed a preincubation time of 24-28 hours at 37° C. for stabilization. Incubation with the inhibitor compounds lasted for 48 hours in 5% CO2 atmosphere and 100% humidity. Determination of cell growth was done by in situ fixation of cells, followed by staining with a protein-binding dye, sulforhodamine B (SRB), which binds to the basic amino acids of cellular macromolecules. The solubilized stain was measured spectrophotometrically.

[2] = tested on: FADU; assay: Human cancer cell line studies, FADU; assay type: cell-based; details: Pharynx-sqam FADU
Description: as §1

[3] = tested on: NCI-H460; assay: Growth inhibitory activity, human cancer cell line NCI-H460 (SRB); assay type: cell-based; details: Lung-NSC NCI-H460
Description: as §1

[4] = tested on: DU-145; assay: Human cancer cell line studies, DU-145; assay type: cell-based; details: Prostate DU-145
Description: as §1

[5] = tested on: BXPC-3; assay: Human cancer cell line studies, BXPC-3; assay type: cell-based; details: Pancreas adn BXPC-3
Description: as §1

[6] = tested on: T1, tubulin; assay: Tubulin polymerization assay; assay type: biochemical, bovine; details: for IC50: purified tubulin […], GTP-induced, 350 nm, final steady-state number for compounds other than 1A and 10A, read-out: IC50 for inhibition of tubulin polymerization
T1 construct: Purified tubulin is obtained from bovine brain cells as described in Hamel and Lin
Description: The ability of the various above described compounds to inhibit tubulin polymerization can be determined by in vitro assay. A suitable assay system is that described by Bai et al. A method for purifying tubulin from bovine brain cells is described by Hamel and Lin.
IC50 values for tubulin polymerization were determined according to the procedure described in Bai et al. Purified tubulin is obtained from bovine brain cells as described in Hamel and Lin. Various amounts of inhibitor were preincubated for 15 minutes at 37° C. with purified tubulin. After the incubation period, the reaction was cooled and GTP was added to induce tubulin polymerization. Polymerization was then monitored in a Gilford spectrophotometer at 350 nm. The final reaction mixtures (0.25 ml) contained 1.5 mg/ml tubulin, 0.6 mg/ml microtubule-associated proteins (MAPs), 0.5 mM GTP, 0.5 mM MgCl2, 4% DMSO and 0.1 M 4-morpholineethanesulfonate buffer (MES, pH 6.4). […]

[7] = tested on: SK-N-SH; assay: Human cancer cell line studies, SK-N-SH; assay type: cell-based; details: Neuroblast SK-N-SH
Description: as §1

[8] = tested on: P388 leukemia cells; assay: Cytotoxic assay with P388 leukemia cells; assay type: cell-based, mouse
Description: The tubulin polymerization compounds can also be tested for their ability to inhibit tumor cell growth.

[9] = Homo sapiens, SW-1736, read-out: GI50
[10] = Mus musculus, P388, read-out: ED50
[11] = P388 mouse leukemia, dosage required to inhibit 50% of cell growth

Row | Compound | GI50 [1, 9] [µg/mL] | GI50 ([2]; Homo sapiens, read-out: GI50) [µg/mL] | GI50 ([3]; Homo sapiens, read-out: GI50) [µg/mL] | GI50 ([4]; Homo sapiens, read-out: GI50) [µg/mL] | GI50 ([5]; Homo sapiens, read-out: GI50) [µg/mL] | IC50 [6] [µM] | GI50 ([7]; Homo sapiens, read-out: GI50) [µg/mL] | other results
1 | COc1cc(/C=C\c2cc(OC)c(OC)c(OC)c2)ccc1[N+](=O)[O-] [Compound 27E, (Z)-1-(3′-methoxy-4′-nitrophenyl)-2-(3″,4″,5″-trimethoxyphenyl) ethene] | 3.3 (≈ 9.56 µM) | 1.1 (≈ 3.19 µM) | 2.3 (≈ 6.66 µM) | 2.6 (≈ 7.53 µM) | 1.9 (≈ 5.5 µM) | > 40 | 2.1 (≈ 6.08 µM) | –
2 | COc1ccc(/C=C\c2cc(OC)c(OC)c(OC)c2)cc1N [Compound 33E, (Z)-1-(3′-amino-4′-methoxyphenyl)-2-(3″,4″,5″-trimethoxyphenyl)ethene] | < 0.001 | < 0.001 | 0.00068 (≈ 0.00216 µM) | 0.00096 (≈ 0.00304 µM) | 0.0013 (≈ 0.00412 µM) | […] | < 0.001 | –
3 | COc1ccc(-c2sc3cc(OC)ccc3c2C(=O)/C=C/c2cc(OC)c(OC)c(OC)c2)cc1 [Compound 17A, E-3-[3′-(3′,4′,5′-trimethoxyphenyl)cinnamoyl]-2-(4′-methoxyphenyl)-6-methoxybenzo[b]thiophene] | 5.2 (≈ 10.6 µM) | 1.8 (≈ 3.67 µM) | 3.9 (≈ 7.95 µM) | 7.5 (≈ 15.3 µM) | 2.3 (≈ 4.69 µM) | > 40 | 1.3 (≈ 2.65 µM) | –
4 | COc1ccc(-c2sc3cc(OC)ccc3c2C(=O)c2c(F)c(F)c(F)c(F)c2F)cc1 [Compound 15A, 3-(2′,3′,4′,5′,6′-pentafluorobenzoyl)-2-(4′-methoxyphenyl)-6-methoxybenzo[b]thiophene] | 4 (≈ 8.61 µM) | 1.3 (≈ 2.8 µM) | 7.9 (≈ 17 µM) | 5 (≈ 10.8 µM) | 5.9 (≈ 12.7 µM) | > 40 | 1.4 (≈ 3.01 µM) | –
5 | COc1ccc(-c2sc3ccccc3c2C(=O)c2cc(OC)c(OC)c(OC)c2)cc1 [Compound 16A, 3-(3′,4′,5′-trimethoxybenzoyl)-2-(4′-methoxyphenyl)-benzo[b]thiophene] | 4.6 (≈ 10.6 µM) | 0.63 (≈ 1.45 µM) | 2.7 (≈ 6.21 µM) | 4.8 (≈ 11 µM) | 1.7 (≈ 3.91 µM) | > 40 | 0.83 (≈ 1.91 µM) | –
6 | CCOc1ccc(-c2sc3cc(OCC)ccc3c2C(=O)c2cc(OC)c(OC)c(OC)c2)cc1 [Compound 18A, 3-(3′,4′,5′-trimethoxybenzoyl)-2-(4′-ethoxyphenyl)-6-ethoxybenzo[b]thiophene] | 2.3 (≈ 4.67 µM) | 0.6 (≈ 1.22 µM) | 1.4 (≈ 2.84 µM) | 3.6 (≈ 7.31 µM) | 1.6 (≈ 3.25 µM) | > 40 | 0.33 (≈ 0.67 µM) | –
7 | COc1ccc(-c2sc3cc(OC)ccc3c2C(=O)c2cc(OC)c(O)c(OC)c2)cc1 [Compound 19A, 3-(4′-hydroxy-3′,5′-dimethoxybenzoyl)-2-(4′-methoxyphenyl)-6-methoxybenzo[b]thiophene] | – | – | – | – | – | – | – | activity against P388 leukemia cells [8]: failed to show measurable activity against the leukemia cells; IC50 [8, 10]: > 100 µg/mL; ED50 [8, 11]: >100 µg/mL; tubulin polymerization inhibition [6]: no observable tubulin polymerization inhibition activity
8 | COc1ccc2c(c1)CCC=C2c1cc(OC)c(OC)c(OC)c1CO [Compound 25D, 1-(hydroxymethyl-3′,4′,5′-trimethoxyphenyl)-6-methoxy-3,4-dihydronaphthalene] | 2.1 (≈ 5.89 µM) | 0.51 (≈ 1.43 µM) | 1.5 (≈ 4.21 µM) | 2.6 (≈ 7.29 µM) | 0.53 (≈ 1.49 µM) | > 40 | 0.3 (≈ 0.842 µM) | –
9 | COc1ccc(-c2cc3c(OC)ccc(C(=O)c4cc(F)c(F)c(F)c4)c3s2)cc1 [Compound 12A, 7-(3′,4′,5′-trifluorobenzoyl)-2-(4′-methoxyphenyl)-4-methoxybenzo[b]thiophene] | > 10 | 6.7 (≈ 15.6 µM) | > 10 | > 10 | > 10 | > 40 | > 10 | –
10 | COc1ccc(/C=C\c2cc(OC)c(OC)c(OC)c2)cc1N(Cc1ccccc1)Cc1ccccc1 [5-[(Z)-2-(3′,4′,5′-trimethoxyphenyl)ethenyl]-2-methoxy-N,N-bis-(phenylmethyl)aniline, reference compound] | – | – | – | – | – | – | – | ED50 [8, 11]: 33.9 µg/mL (≈ 68.4 µM)
11 | COc1ccc(-c2sc3cc(OC)ccc3c2C(=O)c2cc(OC)cc(OC)c2)cc1 [Compound 3A, 3-(3′,5′-dimethoxybenzoyl)-2-(4′-methoxyphenyl)-6-methoxybenzo[b]thiophene] | – | – | – | – | – | – | – | activity against P388 leukemia cells [8]: failed to show measurable activity against the leukemia cells; IC50 [8, 10]: > 100 µg/mL; ED50 [8, 11]: >100 µg/mL; tubulin polymerization inhibition [6]: no observable tubulin polymerization inhibition activity
12 | COc1ccc(-c2sc3cc(OC)ccc3c2C(=O)c2cc(F)c(F)c(F)c2)cc1 [Compound 14A, 3-(3′,4′,5′-trifluorobenzoyl)-2-(4′-methoxyphenyl)-6-methoxybenzo[b]thiophene] | > 10 | 13.6 (≈ 31.7 µM) | > 10 | > 10 | > 10 | > 40 | > 10 | –
13 | COc1ccc(-c2sc3cc(OC)ccc3c2C(=O)c2ccc(N(C)C)cc2)cc1 [Compound 11A, 3-(4′-N,N-dimethylaminobenzoyl)-2-(4′-methoxyphenyl)-6-methoxybenzo[b]thiophene] | > 10 | > 10 | > 10 | > 10 | > 10 | > 40 | > 10 | –
14 | CCOc1c(OC)cc(C(=O)c2c(-c3ccc(OC)cc3)sc3cc(OC)ccc23)cc1OC [Compound 10A, 3-(4′-ethoxy-3′,5′-dimethoxybenzoyl)-2-(4′-methoxyphenyl)-6-methoxybenzo[b]thiophene] | 0.31 (≈ 0.648 µM) | 0.31 (≈ 0.648 µM) | 0.32 (≈ 0.669 µM) | 0.35 (≈ 0.731 µM) | 0.22 (≈ 0.46 µM) | – | 0.17 (≈ 0.355 µM) | tubulin polymerization inhibition [6]: clear inhibition of tubulin polymerization of rate, but not of plateau; polymerization curves at several concentrations ([6]; 4, 10, and 40 μM): nearly identical
15 | COc1ccc(-c2sc3cc(OC)ccc3c2C(=O)c2c(OC)cccc2OC)cc1 [Compound 2A, 3-(2′,6′-dimethoxybenzoyl)-2-(4′-methoxyphenyl)-6-methoxybenzo[b]thiophene] | – | – | – | – | – | – | – | activity against P388 leukemia cells [8]: failed to show measurable activity against the leukemia cells; ED50 [8, 11]: >100 µg/mL; IC50 ([8]; P388 mouse leukemia, dosage required to inhibit 50% of cell growth, read-out: ED50 (the source's name)): > 100 µg/mL; tubulin polymerization inhibition [6]: no observable tubulin polymerization inhibition activity
16 | COc1ccc(/C=C\c2cc(OC)c(OC)c(OC)c2)cc1[N+](=O)[O-] [Compound 31E, (Z)-1-(4″-methoxy-3″-nitrophenyl)-2-(3′,4′,5′-trimethoxyphenyl)ethene] | – | – | – | – | – | – | – | ED50 [8, 11]: 4.0 µg/mL (≈ 11.6 µM); GI50 [1]: 0.056 µg/mL (≈ 0.162 µM); GI50 [2]: 2.6 µg/mL (≈ 7.53 µM); GI50 [3]: 0.043 µg/mL (≈ 0.125 µM); GI50 [4]: 0.046 µg/mL (≈ 0.133 µM); GI50 [5]: 0.037 µg/mL (≈ 0.107 µM); GI50 [7]: >10 µg/mL
17 | COc1ccc2c(c1)CCC=C2C(=O)c1cc(OC)c(OC)c(OC)c1 [Compound 26D, 1-(3′,4′,5′-trimethoxybenzoyl)-6-methoxy-3,4-dihydronaphthalene] | 0.0048 (≈ 0.0135 µM) | 0.0013 (≈ 0.00367 µM) | 0.0033 (≈ 0.00931 µM) | 0.0038 (≈ 0.0107 µM) | 0.003 (≈ 0.00846 µM) | 1.7 | < 0.001 | tubulin polymerization curve at 4 μM ([6]; 4 μM): total flat
18 | COc1ccc(-c2cc3c(OC)ccc(C(=O)c4cc(OC)c(OC)c(OC)c4)c3s2)cc1 [Compound 13A, 7-(3′,4′,5′-trimethoxybenzoyl)-2-(4′-methoxyphenyl)-4-methoxybenzo[b]thiophene] | > 10 | 7.8 (≈ 16.8 µM) | > 10 | > 10 | > 10 | > 40 | > 10 | –
19 | COc1cc(/C=C\c2cc(OC)c(OC)c(OC)c2)ccc1N=[N+]=[N-] [Compound 30E, (Z)-1-(4′azido-3′-methoxyphenyl)-2-(3″,4″,5″-trimethoxyphenyl)ethene] | 0.45 (≈ 1.32 µM) | 0.42 (≈ 1.23 µM) | 0.35 (≈ 1.03 µM) | 0.7 (≈ 2.05 µM) | 0.3 (≈ 0.879 µM) | 1.5 | 0.24 (≈ 0.703 µM) | –
